One block for each compound: values may come before it.
Tests used:
Homo sapiens [1] = assay: Antiosteoporotic activity in men with osteoporosis assessed as decrease in bone resorption-associated serum CTX-1 level at 250 mg/kg after 10 to 14 days; format: functional, organism-based; set-up: dose 250 mg/kg; conditions: dose 250 mg/kg
Homo sapiens [2] = assay: Antiosteoporotic activity in men with osteoporosis assessed as decrease in bone resorption-associated urinary CTX-1 level at 250 mg/kg after 10 to 14 days; format: functional; conditions: Urine
Integrin alpha-V/beta-3 [3] = target: T1, Integrin alpha-V/beta-3 (Homo sapiens, UniProt P05106+P06756)
Target sequence in this assay (P05106 27-788 limits assumed): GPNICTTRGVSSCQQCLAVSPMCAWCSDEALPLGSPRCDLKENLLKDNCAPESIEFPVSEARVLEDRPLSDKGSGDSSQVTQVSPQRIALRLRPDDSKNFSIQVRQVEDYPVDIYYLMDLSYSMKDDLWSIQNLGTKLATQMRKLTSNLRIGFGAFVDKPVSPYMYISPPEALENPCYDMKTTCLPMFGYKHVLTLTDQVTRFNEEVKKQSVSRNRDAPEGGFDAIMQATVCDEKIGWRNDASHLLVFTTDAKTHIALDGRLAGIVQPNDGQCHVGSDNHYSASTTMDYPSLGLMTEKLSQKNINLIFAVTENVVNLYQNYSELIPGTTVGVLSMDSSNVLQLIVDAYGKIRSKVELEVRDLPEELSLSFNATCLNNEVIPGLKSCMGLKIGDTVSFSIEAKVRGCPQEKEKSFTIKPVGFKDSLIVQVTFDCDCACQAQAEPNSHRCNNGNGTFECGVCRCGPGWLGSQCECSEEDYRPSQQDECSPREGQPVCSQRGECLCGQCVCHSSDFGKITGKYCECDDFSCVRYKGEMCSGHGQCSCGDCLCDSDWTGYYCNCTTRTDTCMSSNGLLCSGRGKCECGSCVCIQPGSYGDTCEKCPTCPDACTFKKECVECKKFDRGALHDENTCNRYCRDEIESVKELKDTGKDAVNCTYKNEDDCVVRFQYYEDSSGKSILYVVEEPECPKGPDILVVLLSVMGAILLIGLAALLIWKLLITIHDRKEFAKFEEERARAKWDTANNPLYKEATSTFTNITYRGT
Target sequence in this assay (P06756 31-889 limits assumed): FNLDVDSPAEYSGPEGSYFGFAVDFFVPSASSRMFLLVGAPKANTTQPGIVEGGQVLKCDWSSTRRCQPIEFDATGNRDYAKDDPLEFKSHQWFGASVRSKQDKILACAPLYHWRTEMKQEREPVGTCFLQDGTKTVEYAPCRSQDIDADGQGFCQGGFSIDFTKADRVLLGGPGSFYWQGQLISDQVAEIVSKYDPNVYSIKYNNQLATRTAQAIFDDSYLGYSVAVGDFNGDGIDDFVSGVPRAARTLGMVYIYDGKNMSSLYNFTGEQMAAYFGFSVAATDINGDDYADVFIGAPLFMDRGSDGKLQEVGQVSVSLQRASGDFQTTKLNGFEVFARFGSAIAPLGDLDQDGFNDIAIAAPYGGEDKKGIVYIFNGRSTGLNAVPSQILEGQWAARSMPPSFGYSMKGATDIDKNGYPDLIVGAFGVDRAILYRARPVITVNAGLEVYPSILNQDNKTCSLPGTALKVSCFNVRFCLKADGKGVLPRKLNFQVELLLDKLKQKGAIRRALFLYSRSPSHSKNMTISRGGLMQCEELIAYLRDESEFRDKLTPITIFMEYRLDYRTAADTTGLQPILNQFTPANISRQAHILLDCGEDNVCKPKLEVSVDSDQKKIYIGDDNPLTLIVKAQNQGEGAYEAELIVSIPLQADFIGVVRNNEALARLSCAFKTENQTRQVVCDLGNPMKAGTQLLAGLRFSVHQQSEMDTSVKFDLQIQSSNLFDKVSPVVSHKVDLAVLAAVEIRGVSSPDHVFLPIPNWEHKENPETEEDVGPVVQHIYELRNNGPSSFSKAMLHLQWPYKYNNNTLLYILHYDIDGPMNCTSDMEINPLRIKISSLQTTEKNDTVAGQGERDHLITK
Target sequence in this assay (P06756 891-1048 limits assumed): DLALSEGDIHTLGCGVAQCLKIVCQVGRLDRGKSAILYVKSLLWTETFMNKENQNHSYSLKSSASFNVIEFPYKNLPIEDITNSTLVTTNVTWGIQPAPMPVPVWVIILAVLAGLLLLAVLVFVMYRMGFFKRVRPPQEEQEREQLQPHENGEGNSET

[4] = Selectivity for integrin alphaVbeta3 over integrin alphaVbeta5
Mus musculus [5] = species on record: Mus musculus; assay: Induction of bone formation in GPR55 knockout male mouse assessed as increase in femur mass volume; format: functional
Mus musculus [6] = assay: Antiosteoporotic activity in mouse assessed as increase in bone volume at 10 mg/kg administered 3 times a week for 8 weeks; format: functional, Bone element
Mus musculus [7] = assay: Antiosteoporotic activity in mouse assessed as decrease in bone resorption-associated serum CTX-1 level at 10 mg/kg administered 3 times a week for 8 weeks; format: functional; conditions: 1344 h
Mus musculus [8] = species on record: Mus musculus; assay: Induction of bone formation in GPR55 knockout male mouse assessed as increase in tibia mass volume; format: functional
[9] = target: G-protein coupled receptor 55 (Homo sapiens, UniProt Q9Y2T6); assay: Binding affinity to GPR55
MC3T3-E1 [10] = assay: Induction of osteogenesis in mouse MC3T3-E1 cells assessed as increase in osteoblast differentiation-associated collagen synthesis at 0.03 uM; format: functional
MC3T3-E1 [11] = assay: Induction of osteogenesis in mouse MC3T3-E1 cells assessed as increase in osteoblast differentiation-associated ALP level at 0.03 uM; format: functional
MC3T3-E1 [12] = assay: Induction of osteogenesis in mouse MC3T3-E1 cells assessed as increase in bone mineralization at 0.03 uM; format: functional
Rattus norvegicus [13] = assay: Short duration (5-10 min) elevation in PTH as Cmax in rats after 3 umol/kg intravenous dose; format: functional
[14] = target: T2, Extracellular calcium-sensing receptor (Homo sapiens, UniProt P41180)
T2 sequence (P41180 whole entry): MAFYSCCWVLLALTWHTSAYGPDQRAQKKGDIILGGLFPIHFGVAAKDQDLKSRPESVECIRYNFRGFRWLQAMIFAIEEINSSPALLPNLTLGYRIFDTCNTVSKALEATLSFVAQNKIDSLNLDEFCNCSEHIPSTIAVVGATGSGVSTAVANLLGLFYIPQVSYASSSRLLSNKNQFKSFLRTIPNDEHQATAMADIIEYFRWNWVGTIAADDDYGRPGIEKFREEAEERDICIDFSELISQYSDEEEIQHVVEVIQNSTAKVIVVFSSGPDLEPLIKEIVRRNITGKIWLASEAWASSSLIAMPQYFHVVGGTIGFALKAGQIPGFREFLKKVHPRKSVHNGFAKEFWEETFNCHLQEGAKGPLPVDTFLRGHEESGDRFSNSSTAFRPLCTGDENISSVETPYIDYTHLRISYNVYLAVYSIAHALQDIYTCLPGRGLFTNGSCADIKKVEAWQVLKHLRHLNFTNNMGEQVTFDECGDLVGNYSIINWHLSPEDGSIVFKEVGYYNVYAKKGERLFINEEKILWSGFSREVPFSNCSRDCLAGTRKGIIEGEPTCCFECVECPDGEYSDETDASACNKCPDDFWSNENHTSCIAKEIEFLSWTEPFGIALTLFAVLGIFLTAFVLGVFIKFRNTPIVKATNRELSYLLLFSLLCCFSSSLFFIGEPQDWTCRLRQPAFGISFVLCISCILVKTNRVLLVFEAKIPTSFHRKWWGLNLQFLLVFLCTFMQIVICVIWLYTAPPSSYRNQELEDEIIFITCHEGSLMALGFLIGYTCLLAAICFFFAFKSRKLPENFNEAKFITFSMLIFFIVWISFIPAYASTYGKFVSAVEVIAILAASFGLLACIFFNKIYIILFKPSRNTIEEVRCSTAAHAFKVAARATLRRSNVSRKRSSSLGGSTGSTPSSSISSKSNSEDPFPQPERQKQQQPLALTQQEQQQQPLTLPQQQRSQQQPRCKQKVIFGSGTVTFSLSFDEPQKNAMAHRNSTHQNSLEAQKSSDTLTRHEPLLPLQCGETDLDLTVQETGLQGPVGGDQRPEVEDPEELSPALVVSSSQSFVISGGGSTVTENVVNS

Rattus norvegicus [15] = assay: Short duration (5-10 min) elevation in PTH as Cmax in rats after 10 umol/kg intravenous dose; format: functional, organism-based
Osteoclast [16] = assay: Inhibition of osteoclastogenesis in RANKL-stimulated mouse osteoclast at 20 uM; format: functional
Osteoclast [17] = assay: Inhibition of osteoclastogenesis in RANKL-stimulated mouse osteoclast at 10 uM; format: functional
[18] = Selectivity for cathepsin K over cathepsin B
[19] = Selectivity for cathepsin K over cathepsin L
[20] = Selectivity for cathepsin K over cathepsin S
Integrin alpha-V/beta-3 [21] = target: T1, Integrin alpha-V/beta-3; assay: Inhibition of integrin alpha-V-beta-3-mediated adhesion of HEK293 cells; format: cell-based
[22] = target: Integrin alpha-V/beta-1 (Homo sapiens) (UniProt P05556+P06756); assay: Inhibition of integrin alpha-V-beta-1-mediated adhesion of HEK293 cells; format: cell-based
[23] = target: Integrin alpha-V/beta-6 (Homo sapiens) (UniProt P06756+P18564); assay: Inhibition of integrin alpha-V-beta-6-mediated adhesion of human HT-29 cells; format: cell-based
[24] = Selectivity for integrin alphaVbeta3 over integrin alpha2Bbeta3
[25] = target: Integrin alpha-V/beta-5 (Homo sapiens) (UniProt P06756+P18084); assay: Inhibition of integrin alpha-V-beta-5-mediated adhesion of HEK293 cells; format: cell-based
MC3T3-E1 [26] = assay: Induction of osteogenesis in mouse MC3T3-E1 cells assessed as increase in bone mineralization at 1 uM; format: functional
MC3T3-E1 [27] = assay: Induction of osteogenesis in mouse MC3T3-E1 cells assessed as increase in osteoblast differentiation-associated collagen synthesis at 0.01 uM; format: functional
MC3T3-E1 [28] = assay: Induction of osteogenesis in mouse MC3T3-E1 cells assessed as increase in osteoblast differentiation-associated ALP level at 0.01 uM; format: functional
Osteoclast [29] = assay: Inhibition of osteoclastogenesis in RANKL/M-CSF-stimulated osteoclast; format: functional, cell-based

G-protein coupled receptor 55, sequence (Q9Y2T6 whole entry): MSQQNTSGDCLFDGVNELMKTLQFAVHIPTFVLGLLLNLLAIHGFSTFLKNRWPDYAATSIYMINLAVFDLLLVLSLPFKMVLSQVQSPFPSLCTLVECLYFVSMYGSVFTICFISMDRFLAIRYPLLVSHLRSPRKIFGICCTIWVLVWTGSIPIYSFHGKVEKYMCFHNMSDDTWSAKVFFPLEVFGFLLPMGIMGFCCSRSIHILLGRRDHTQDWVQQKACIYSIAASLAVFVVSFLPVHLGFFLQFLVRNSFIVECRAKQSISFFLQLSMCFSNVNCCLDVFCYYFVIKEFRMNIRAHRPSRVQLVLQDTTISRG

Structure (SMILES): CN1CCN(CCOc2cc(OC3CCOCC3)c3c(Nc4c(Cl)ccc5c4OCO5)ncnc3c2)CC1 [SARACATINIB]
inhibition in vivo at 250 mg/kg (Homo sapiens [1]): 88%
inhibition in vivo at 250 mg/kg (Homo sapiens [2]): 67%

IC50 (Integrin alpha-V/beta-3 [3]): 304 nM
Selectivity ratio [4]: 3.5
Structure (SMILES): CC(C)(C)OC(=O)[C@@H]1C[C@H](CC(=O)O)[C@H]2CC[C@H](NC(=O)[C@@H](N)CCCNC(=N)N)C(=O)N21

Structure (SMILES): C=C(C)[C@@H]1CCC(C)=C[C@H]1c1c(O)cc(CCCCC)cc1O [CANNABIDIOL]
Activity (Mus musculus [5]): 149%
Activity (Mus musculus [6]): 10%
inhibition in vivo at 10 mg/kg (Mus musculus [7]): 18%
Activity (Mus musculus [8]): 136%
EC50 [9]: 445 nM

Structure (SMILES): C=CCc1ccc(O)c(O[C@@H]2O[C@H](CO[C@@H]3OC[C@](O)(CO)[C@H]3O)[C@@H](O)[C@H](O)[C@H]2O)c1 [MANGLIESIDE B]
Activity (MC3T3-E1 [10]): 123%
Activity (MC3T3-E1 [11]): 114%
Activity (MC3T3-E1 [12]): 118%

IC50 [14]: 97 nM
Structure (SMILES): CCc1cc2c(=O)n(CCc3ccccc3F)c(-c3ccccc3O)nc2cc1C
Cmax PTH (Rattus norvegicus [13]): 600 pg/mL

IC50 (Integrin alpha-V/beta-3 [3]): 30 nM
Structure (SMILES): COc1cc(Cl)c(/C=C2\S/C(=N/c3cccc(C(=O)O)c3)N(C)C2=O)cc1OC

Structure (SMILES): O=c1c2ccccc2nc(-c2ccccc2O)n1CCc1ccccc1
Cmax PTH (Rattus norvegicus [15]): 400 pg/mL

IC50 [14]: 520 nM
Structure (SMILES): CCOC(=O)CCc1ccc(C#N)c(OC[C@H](O)CNC(C)(C)CC2Cc3ccccc3C2)c1

Structure (SMILES): O=C(O[C@@H]1Cc2c(O)cc(O)cc2O[C@@H]1c1cc(O)c(O)c(O)c1)c1cc(O)c(O)c(O)c1 [EPIGALOCATECHIN GALLATE]
inhibition at 20 µM (Osteoclast [16]): 32%
inhibition at 10 µM (Osteoclast [17]): 17%

Selectivity ratio [18]: > 556
Selectivity ratio [19]: 111
Selectivity ratio [20]: 31
Structure (SMILES): CC(C)CNc1nc(C#N)nc(N2CCOCC2)c1N

Structure (SMILES): O=C(O)C[C@H](Cc1nc(CCCc2ccc3c(n2)NCCC3)no1)c1ccc2c(c1)OCO2
Activity (Integrin alpha-V/beta-3 [21]): 0.65 nM
Activity [22]: 2.6 nM
Activity [23]: 2.7 µM
Selectivity ratio [24]: 67
Activity [25]: 1.7 nM

Structure (SMILES): COc1c(O)cc2c(O)c3c(O)c(O)c(O[C@@H]4O[C@@H](C)[C@H](O)[C@@H](O)[C@H]4O)cc3c(O)c2c1O
Activity (MC3T3-E1 [26]): 125%
Activity (MC3T3-E1 [27]): 111%

Structure (SMILES): COc1cc2c(O)c3c(O)c(OC)c(O[C@@H]4O[C@H](CO)[C@@H](O)[C@H](O)[C@H]4O)cc3c(O)c2c(O)c1OC
Activity (MC3T3-E1 [28]): 135%
Activity (MC3T3-E1 [26]): 115%

Structure (SMILES): CC1(C)C(=O)CC[C@]2(C)[C@@H]1CC[C@@]13CC4[C@@H](C[C@H]12)[C@]4(C(=O)O)C3
IC50 (Osteoclast [29]): 4000 nM
